Results reported in article PMC3995882, “Antimicrobial and Immunomodulatory Activities of PR-39 Derived Peptides” (PLoS ONE, 2014).
Converted amounts (≈) assume the structure as drawn. Where a SMILES comes first, the peptide text is derived from it.

Tests used:
B. globigii = type: cell-based, Bacillus globigii; settings: colony counting, 3 h 37°C, 10 mM phosphate buffer pH 7.0 with 1/1000 TSB, MBC = <100 CFU/ml; for MBC B. globigii 0 mM NaCl: 2×10^6 CFU/ml, no NaCl added; for MBC B. globigii +100 mM NaCl: 100 mM NaCl added
Method: (§1) Overnight cultures of E. coli and B. globigii were grown in TSB medium at 37°C to mid-logarithmic phase. The antimicrobial activity of the PR-39 derived peptides was tested using colony counting as described before. In short, cells were collected via centrifugation at 900×g for 10 minutes, and resuspended in 10 mM phosphate buffer, pH 7.0, containing 1/1000 TSB medium (Buffer A). Cells were further diluted to 2×10^6 CFU/ml in the same buffer. Next, 25 µl of cell suspension was mixed with an equal volume of different concentrations of peptides ranging from 0–80 µM, and incubated further for 3 hours at 37°C. Ten-fold dilutions were prepared in minimal buffer containing 1/1000 TSB medium in distilled water, and 100 µl from each dilution was spread on TSA plates (Trypton Soy Agar; Oxoid). The plates were incubated at 37°C and the number of colonies was counted 24 h later to determine the number of surviving bacteria. Minimal Bactericidal Concentration (MBC) was defined as <100 CFU/ml corresponding to the detection limit of this assay. To determine the dependence of activity of PR-39 on the energy status of the cell, E. coli was incubated 30 min at 37°C in the presence of the metabolic uncouplers 50 µM carbonyl cyanide m-chlorophenylhydrazone (CCCP), or 5 mM 2,4-dinitrophenol (DNP). Subsequently, an antimicrobial activity assay was performed as described above.

E. coli = test: Colony counting assay (MBC); type: cell-based, Escherichia coli; settings: 3 h 37°C, 10 mM phosphate buffer pH 7.0 with 1/1000 TSB, MBC = <100 CFU/ml; for MBC E. coli 0 mM NaCl: 2×10^6 CFU/ml, no NaCl added; for MBC E. coli 100 mM NaCl: 100 mM NaCl added
Method: as §1

[1] = tested on: serine proteases, elastase, and aminopeptidases; settings: cited from earlier work
Excerpt: Current literature on PR-39 has shifted from an initial focus on antibacterial activity to potential new roles in host defence mechanisms.

[2] = tested on: Enterococcus Faecalis (ATCC 29213); test: Broth dilution assay (MIC); type: cell-based; settings: 50% MHB, turbidity, range of triplicate experiments
[3] = tested on: Bacillus Cereus ATCC 9193; test: Broth dilution assay (MIC); type: cell-based; settings: 50% MHB, turbidity, range of triplicate experiments
[4] = tested on: Bacillus Lichen ATCC 21424; test: Broth dilution assay (MIC); type: cell-based, Bacillus licheniformis; settings: 50% MHB, turbidity, range of triplicate experiments
[5] = tested on: Enterococcus Faeceum E155; type: cell-based; settings: broth dilution, 50% MHB, turbidity; range of triplicate experiments
E.coli K88 403 = settings: broth dilution, 50% MHB, turbidity; range of triplicate experiments
Method: Initial screening for antibacterial activity of PR-39 was performed using broth dilution assays. Bacteria were grown to mid-logarithmic phase in MHB medium. The optical density was measured and bacteria were diluted to 2×10^6 CFU/ml. Subsequently 25 µl bacteria were incubated with 25 µl peptide in polypropylene 96 wells plates and incubated at 37°C. After 3 h 200 µl MHD medium was added and samples were further incubated overnight. Minimal inhibitory concentrations (MIC) were determined by turbidity measurement of the wells.

E.coli ATCC 4157 = test: Broth dilution assay (MIC); type: cell-based, Escherichia coli; settings: 50% MHB, turbidity, range of triplicate experiments
[6] = tested on: Streptococcus Pyogenes (ATCC 19616); test: Broth dilution assay (MIC); type: cell-based; settings: 50% MHB, turbidity, range of triplicate experiments
E.coli ATCC25922 = test: Broth dilution assay (MIC); type: cell-based, Escherichia coli; settings: 50% MHB, turbidity, range of triplicate experiments
Bacillus Globigii (TNO) = type: cell-based; settings: broth dilution, 50% MHB, turbidity; range of triplicate experiments
[7] = tested on: Bacillus Subtilis (ATCC6633); test: Broth dilution assay (MIC); type: cell-based; settings: 50% MHB, turbidity, range of triplicate experiments
E.coli K12 = test: Broth dilution assay (MIC); type: cell-based, Escherichia coli; settings: 50% MHB, turbidity, range of triplicate experiments

| SMILES | MBC B. globigii 0 mM NaCl (B. globigii) | MBC B. globigii +100 mM NaCl (B. globigii) | MBC E. coli 0 mM NaCl (E. coli) | MBC E. coli 100 mM NaCl (E. coli) | other results |
| --- | --- | --- | --- | --- | --- |
| CC[C@H](C)[C@H](NC(=O)[C@H](CCCNC(=N)N)NC(=O)[C@@H]1CCCN1)C(=O)N1CCC[C@H]1C(=O)N1CCC[C@H]1C(=O)NCC(=O)N[C@@H](Cc1ccccc1)C(=O)N1CCC[C@H]1C(=O)N1CCC[C@H]1C(=O)N[C@@H](CCCNC(=N)N)C(=O)N[C@@H](Cc1ccccc1)C(=O)N1CCC[C@H]1C(=O)N1CCC[C@H]1C(=O)N[C@@H](CCCNC(=N)N)C(=O)N[C@@H](Cc1ccccc1)C(=O)N1CCC[C@H]1C(=O)O [PR-39(24–39)] (H-PRIPPGFPPRFPPRFP-OH) | 40 µM (≈ 75 µg/mL) | >40 µM | 40 µM (≈ 75 µg/mL) | >40 µM | – |
| CC(C)C[C@H](NC(=O)[C@H](Cc1ccc(O)cc1)NC(=O)[C@@H]1CCCN1C(=O)[C@@H]1CCCN1C(=O)[C@H](CCCNC(=N)N)NC(=O)[C@@H]1CCCN1C(=O)[C@H](CCCNC(=N)N)NC(=O)[C@H](CCCNC(=N)N)NC(=O)[C@@H](N)CCCNC(=N)N)C(=O)N1CCC[C@H]1C(=O)N[C@@H](CCCNC(=N)N)C(=O)N1CCC[C@H]1C(=O)N[C@@H](CCCNC(=N)N)C(=O)N1CCC[C@H]1C(=O)N1CCC[C@H]1C(=O)O [PR-39(1–15)] (H-RRRPRPPYLPRPRPP-OH) | 5 µM (≈ 9.56 µg/mL) | >40 µM | 5 µM (≈ 9.56 µg/mL) | >40 µM | – |
| CC(C)C[C@H](NC(=O)[C@H](CCCNC(=N)N)NC(=O)[C@@H]1CCCN1C(=O)[C@@H]1CCCN1C(=O)[C@H](Cc1ccccc1)NC(=O)[C@H](Cc1ccccc1)NC(=O)[C@@H]1CCCN1C(=O)[C@@H]1CCCN1C(=O)[C@@H]1CCCN1C(=O)[C@H](CCCNC(=N)N)NC(=O)[C@@H]1CCCN1C(=O)[C@H](CCCNC(=N)N)NC(=O)[C@@H]1CCCN1C(=O)[C@H](CC(C)C)NC(=O)[C@H](Cc1ccc(O)cc1)NC(=O)[C@@H]1CCCN1C(=O)[C@@H]1CCCN1C(=O)[C@H](CCCNC(=N)N)NC(=O)[C@@H]1CCCN1C(=O)[C@H](CCCNC(=N)N)NC(=O)[C@H](CCCNC(=N)N)NC(=O)[C@@H](N)CCCNC(=N)N)C(=O)O [PR-39(1–22)] (H-RRRPRPPYLPRPRPPPFFPPRL-OH) | 2.5 µM (≈ 6.92 µg/mL) | 10 µM (≈ 27.7 µg/mL) | 1.25 µM (≈ 3.46 µg/mL) | 2.5 µM (≈ 6.92 µg/mL) | – |
| CC(C)C[C@H](NC(=O)[C@H](Cc1ccc(O)cc1)NC(=O)[C@@H]1CCCN1C(=O)[C@@H]1CCCN1C(=O)[C@H](CCCNC(=N)N)NC(=O)[C@@H]1CCCN1C(=O)[C@H](CCCNC(=N)N)NC(=O)[C@H](CCCNC(=N)N)NC(=O)[C@@H](N)CCCNC(=N)N)C(=O)N1CCC[C@H]1C(=O)N[C@@H](CCCNC(=N)N)C(=O)N1CCC[C@H]1C(=O)N[C@@H](CCCNC(=N)N)C(=O)N1CCC[C@H]1C(=O)N1CCC[C@H]1C(=O)N1CCC[C@H]1C(=O)N[C@@H](Cc1ccccc1)C(=O)N[C@@H](Cc1ccccc1)C(=O)O [PR-39(1–18)] (H-RRRPRPPYLPRPRPPPFF-OH) | 2.5 µM (≈ 5.76 µg/mL) | 10 µM (≈ 23 µg/mL) | 5 µM (≈ 11.5 µg/mL) | 20 µM (≈ 46.1 µg/mL) | – |
| CC[C@H](C)[C@H](NC(=O)[C@H](CCCNC(=N)N)NC(=O)[C@@H]1CCCN1C(=O)[C@@H]1CCCN1C(=O)[C@H](CC(C)C)NC(=O)[C@H](CCCNC(=N)N)NC(=O)[C@@H]1CCCN1C(=O)[C@@H]1CCCN1C(=O)[C@H](Cc1ccccc1)NC(=O)[C@H](Cc1ccccc1)NC(=O)[C@@H]1CCCN1C(=O)[C@@H]1CCCN1C(=O)[C@@H]1CCCN1C(=O)[C@H](CCCNC(=N)N)NC(=O)[C@@H]1CCCN1C(=O)[C@H](CCCNC(=N)N)NC(=O)[C@@H]1CCCN1C(=O)[C@H](CC(C)C)NC(=O)[C@H](Cc1ccc(O)cc1)NC(=O)[C@@H]1CCCN1C(=O)[C@@H]1CCCN1C(=O)[C@H](CCCNC(=N)N)NC(=O)[C@@H]1CCCN1C(=O)[C@H](CCCNC(=N)N)NC(=O)[C@H](CCCNC(=N)N)NC(=O)[C@@H](N)CCCNC(=N)N)C(=O)O [PR-39(1–26)] (H-RRRPRPPYLPRPRPPPFFPPRLPPRI-OH) | 5 µM (≈ 16.1 µg/mL) | 5 µM (≈ 16.1 µg/mL) | 2.5 µM (≈ 8.07 µg/mL) | 1.25 µM (≈ 4.04 µg/mL) | – |
| CC[C@H](C)[C@H](NC(=O)[C@H](CCCNC(=N)N)NC(=O)[C@@H]1CCCN1C(=O)[C@@H]1CCCN1C(=O)[C@H](CC(C)C)NC(=O)[C@H](CCCNC(=N)N)NC(=O)[C@@H]1CCCN1)C(=O)N1CCC[C@H]1C(=O)N1CCC[C@H]1C(=O)NCC(=O)N[C@@H](Cc1ccccc1)C(=O)N1CCC[C@H]1C(=O)N1CCC[C@H]1C(=O)N[C@@H](CCCNC(=N)N)C(=O)N[C@@H](Cc1ccccc1)C(=O)N1CCC[C@H]1C(=O)N1CCC[C@H]1C(=O)N[C@@H](CCCNC(=N)N)C(=O)N[C@@H](Cc1ccccc1)C(=O)N1CCC[C@H]1C(=O)O [PR-39(20–39)] (H-PRLPPRIPPGFPPRFPPRFP-OH) | 20 µM (≈ 46.8 µg/mL) | >40 µM | 5 µM (≈ 11.7 µg/mL) | >40 µM | – |
| CC[C@H](C)[C@H](NC(=O)[C@H](CCCNC(=N)N)NC(=O)[C@@H]1CCCN1C(=O)[C@@H]1CCCN1C(=O)[C@H](CC(C)C)NC(=O)[C@H](CCCNC(=N)N)NC(=O)[C@@H]1CCCN1C(=O)[C@@H]1CCCN1C(=O)[C@H](Cc1ccccc1)NC(=O)[C@H](Cc1ccccc1)NC(=O)[C@@H]1CCCN1)C(=O)N1CCC[C@H]1C(=O)N1CCC[C@H]1C(=O)NCC(=O)N[C@@H](Cc1ccccc1)C(=O)N1CCC[C@H]1C(=O)N1CCC[C@H]1C(=O)N[C@@H](CCCNC(=N)N)C(=O)N[C@@H](Cc1ccccc1)C(=O)N1CCC[C@H]1C(=O)N1CCC[C@H]1C(=O)N[C@@H](CCCNC(=N)N)C(=O)N[C@@H](Cc1ccccc1)C(=O)N1CCC[C@H]1C(=O)O [PR-39(16–39)] (H-PFFPPRLPPRIPPGFPPRFPPRFP-OH) | 10 µM (≈ 28.3 µg/mL) | >40 µM | 10 µM (≈ 28.3 µg/mL) | >40 µM | – |
| CC[C@H](C)[C@H](NC(=O)[C@H](CCCNC(=N)N)NC(=O)[C@@H]1CCCN1C(=O)[C@@H]1CCCN1C(=O)[C@H](CC(C)C)NC(=O)[C@H](CCCNC(=N)N)NC(=O)[C@@H]1CCCN1C(=O)[C@@H]1CCCN1C(=O)[C@H](Cc1ccccc1)NC(=O)[C@H](Cc1ccccc1)NC(=O)[C@@H]1CCCN1C(=O)[C@@H]1CCCN1C(=O)[C@@H]1CCCN1C(=O)[C@H](CCCNC(=N)N)NC(=O)[C@@H]1CCCN1C(=O)[C@H](CCCNC(=N)N)NC(=O)[C@@H]1CCCN1C(=O)[C@H](CC(C)C)NC(=O)[C@H](Cc1ccc(O)cc1)NC(=O)[C@@H]1CCCN1C(=O)[C@@H]1CCCN1C(=O)[C@H](CCCNC(=N)N)NC(=O)[C@@H]1CCCN1C(=O)[C@H](CCCNC(=N)N)NC(=O)[C@H](CCCNC(=N)N)NC(=O)[C@@H](N)CCCNC(=N)N)C(=O)N1CCC[C@H]1C(=O)N1CCC[C@H]1C(=O)NCC(=O)N[C@@H](Cc1ccccc1)C(=O)N1CCC[C@H]1C(=O)N1CCC[C@H]1C(=O)N[C@@H](CCCNC(=N)N)C(=O)N[C@@H](Cc1ccccc1)C(=O)N1CCC[C@H]1C(=O)N1CCC[C@H]1C(=O)N[C@@H](CCCNC(=N)N)C(=O)N[C@@H](Cc1ccccc1)C(=O)N1CCC[C@H]1C(=O)O [PR-39] (H-RRRPRPPYLPRPRPPPFFPPRLPPRIPPGFPPRFPPRFP-OH) | 2.5 µM (≈ 11.8 µg/mL) | 5 µM (≈ 23.6 µg/mL) | 1.25 µM (≈ 5.9 µg/mL) | 2.5 µM (≈ 11.8 µg/mL) | resistance to proteases [1]: resistant to serine proteases, elastase, and aminopeptidases; MIC [2]: 10 µM (≈ 47.2 µg/mL); MIC [3]: 5 to 20 µM; MIC [4]: 5 µM (≈ 23.6 µg/mL); MIC [5]: 1.25 to 2.5 µM; MIC (E.coli K88 403): 1.25 to 2.5 µM; MIC (E.coli ATCC 4157): 1.25 to 2.5 µM; MIC [6]: 2.5 to 5 µM; MIC (E.coli ATCC25922): 2.5 to 10 µM; MIC (Bacillus Globigii (TNO)): 1.25 to 5 µM; MIC [7]: 2.5 to 5 µM; MIC (E.coli K12): 1.25 to 2.5 µM |
